The test system of one data set is Mouse. As to conditions: pretreatment with GSH; cited from earlier work.
The next data set has as its system guinea pigs. Conditions: non-ascorbate deficient animals, double the dose of 3.75 mmol/kg daily; cited from earlier work.
Data set [1] has as its system systolic and diastolic blood pressure. Conditions: cited from earlier work.
The conditions of data set [2]: human, in vivo, iv; cited from earlier work.
The next data set in a line: in vivo. Conditions: po.

Where two headings read alike, the source gives them in different places. A value given as a limit tells only on which side of the number the result lay.

From the text for in vivo: Once past the stomach, it is important that the glutathione be immediately available for absorption, as the desulfurases and peptidases from the pancreas, as well as the increase in pH, do tend to degrade the glutathione. […] Thus, by providing a high concentration of glutathione in the duodenum, without substantial dilution, the glutathione may be absorbed at a maximum rate.

With `N[C@@H](CCC(=O)N[C@@H](CS)C(=O)NCC(=O)O)C(=O)O` [GSH, gamma-glutamyl-cysteinyl-glycine], the “effect on morphine-induced lethality” value with Mouse is reported as “protects against morphine-induced lethality”. The toxicity result in the data set with guinea pigs is given as “seen at double this dose”. Further, the “time of return of blood pressure to baseline” value in data set [1] (1,844 mg i.v. bolus) is ≤ 30 min. The blood pressure effect result in data set [1] (1,844 mg i.v. bolus, hypertensive patients and non-hypertensive diabetics) was “rapid and significant decrease in both systolic and diastolic blood pressure”; in data set [1] (1,844 mg i.v. bolus, normal healthy subjects) it was “no effect”; in data set [1] (3,699 mg dose, normal subjects) it was “significant decrease in the blood pressure values”. Further, the half-life in data set [2] was 14.1−9.2 minutes. Also, the “volume of distribution of exogenous glutathione” value in data set [2] is recorded as 176−107 Ml/Kg. Besides, the bioavailability (commonly dose-corrected exposure relative to a reference, in per cent) in “in vivo” was ~90%.

The values are drawn from US6586404B1 (priority 1996, dated 2003).
